Measured values from patent publication US11078170B2 (Assembly Biosciences, Inc., priority 2017, dated 2021).

Tested on: HBV viral production from HepAD38 cells
Assay: Activity of test compounds on viral production from HepAD38 cells (viral load by qPCR of HBV core sequence in supernatant)
Type: cell-based
Settings: Hepatitis B virus, 120 h, 5 days incubation, HBV DNA in supernatant by qPCR, top concentration 10 μM, read-out: Viral Load EC50 Activity range
How it was run: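 EC50 and CC50 come from four-parameter fits of supernatant viral load and CellTiter-Glo viability, respectively. Viral load was measured by core-region TaqMan qPCR against HBV DNA standards and compared with DMSO controls. Tet-free HepAD38 cells (50,000/well, 2% FBS) were exposed to compound, highest 10 μM, for 5 days at 37° C.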

SMILES: Cc1nn(C)c(C)c1-c1ccc([C@H]2C[C@@H](C(=O)Nc3ccc(F)c(Cl)c3)N(C)S(=O)(=O)N2)s1 [HBV-CSU-314-ISO-I, Cis-N-(3-chloro-4-fluorophenyl)-2-methyl-5-(5-(1,3,5-trimethyl-1H-pyrazol-4-yl)thiophen-2-yl)-1,2,6-thiadiazinane-3-carboxamide 1,1-dioxide]
- EC50: < 1000 nM

SMILES: Cc1nn(C)c(C)c1-c1ccc([C@@H]2C[C@H](C(=O)Nc3ccc(F)c(Cl)c3)N(C)S(=O)(=O)N2)s1 [HBV-CSU-314-ISO-II, Cis-N-(3-chloro-4-fluorophenyl)-2-methyl-5-(5-(1,3,5-trimethyl-1H-pyrazol-4-yl)thiophen-2-yl)-1,2,6-thiadiazinane-3-carboxamide 1,1-dioxide]
- EC50: 1000 to 5000 nM

SMILES: Cc1c(-c2csc(C3CC(C(=O)Nc4ccc(F)c(Cl)c4)N(C)S(=O)(=O)N3)c2)cnn1C (stereo not drawn) [HBV-CSU-315, Cis-N-(3-chloro-4-fluorophenyl)-5-(4-(1,5-dimethyl-1H-pyrazol-4-yl)thiophen-2-yl)-2-methyl-1,2,6-thiadiazinane-3-carboxamide 1,1-dioxide]
- EC50: < 1000 nM

SMILES: Cc1c(-c2csc([C@H]3C[C@@H](C(=O)Nc4ccc(F)c(Cl)c4)N(C)S(=O)(=O)N3)c2)cnn1C [HBV-CSU-315-ISO-I, Cis-N-(3-chloro-4-fluorophenyl)-5-(4-(1,5-dimethyl-1H-pyrazol-4-yl)thiophen-2-yl)-2-methyl-1,2,6-thiadiazinane-3-carboxamide 1,1-dioxide]
- EC50: < 1000 nM

SMILES: Cc1nn(C)cc1-c1csc([C@H]2C[C@@H](C(=O)Nc3ccc(F)c(Cl)c3)N(C)S(=O)(=O)N2)c1 [HBV-CSU-316-ISO-I, Cis-N-(3-chloro-4-fluorophenyl)-5-(4-(1,3-dimethyl-1H-pyrazol-4-yl)thiophen-2-yl)-2-methyl-1,2,6-thiadiazinane-3-carboxamide 1,1-dioxide]
- EC50: < 1000 nM

SMILES: Cc1nn(C)c(C)c1-c1csc([C@H]2C[C@@H](C(=O)Nc3ccc(F)c(Cl)c3)N(C)S(=O)(=O)N2)c1 [HBV-CSU-317-ISO-I, Cis-N-(3-chloro-4-fluorophenyl)-2-methyl-5-(4-(1,3,5-trimethyl-1H-pyrazol-4-yl)thiophen-2-yl)-1,2,6-thiadiazinane-3-carboxamide 1,1-dioxide]
- EC50: < 1000 nM

SMILES: CN1[C@H](C(=O)Nc2ccc(F)c(Cl)c2)C[C@H](c2ccc(-c3cnn(C(F)(F)F)c3)s2)NS1(=O)=O [HBV-CSU-321-ISO-I, Cis-N-(3-Chloro-4-fluorophenyl)-2-methyl-5-(5-(1-(trifluoromethyl)-1H-pyrazol-4-yl)thiophen-2-yl)-1,2,6-thiadiazinane-3-carboxamide 1,1-dioxide]
- EC50: < 1000 nM

SMILES: CN1[C@@H](C(=O)Nc2ccc(F)c(Cl)c2)C[C@@H](c2ccc(-c3cnn(C(F)(F)F)c3)s2)NS1(=O)=O [HBV-CSU-321-ISO-II, Cis-N-(3-Chloro-4-fluorophenyl)-2-methyl-5-(5-(1-(trifluoromethyl)-1H-pyrazol-4-yl)thiophen-2-yl)-1,2,6-thiadiazinane-3-carboxamide 1,1-dioxide]
- EC50: > 5000 nM

SMILES: CN1C(C(=O)Nc2ccc(F)c(Cl)c2)CC(c2ccc(-c3cnn(C(F)(F)F)c3)s2)NS1(=O)=O (centres unmarked) [HBV-CSU-321]
- EC50: < 1000 nM

SMILES: CN1[C@H](C(=O)Nc2ccc(F)c(Cl)c2)C[C@H](c2ccc(-c3ncn(C)n3)s2)NS1(=O)=O [HBV-CSU-322-ISO-I, Cis-N-(3-Chloro-4-fluorophenyl)-2-methyl-5-(5-(1-methyl-1H-1,2,4-triazol-3-yl)thiophen-2-yl)-1,2,6-thiadiazinane-3-carboxamide 1,1-dioxide]
- EC50: < 1000 nM

SMILES: CN1[C@@H](C(=O)Nc2ccc(F)c(Cl)c2)C[C@@H](c2ccc(-c3ncn(C)n3)s2)NS1(=O)=O [HBV-CSU-322-ISO-II, Cis-N-(3-Chloro-4-fluorophenyl)-2-methyl-5-(5-(1-methyl-1H-1,2,4-triazol-3-yl)thiophen-2-yl)-1,2,6-thiadiazinane-3-carboxamide 1,1-dioxide]
- EC50: > 5000 nM

SMILES: CN1[C@H](C(=O)Nc2ccc(F)c(Cl)c2)C[C@H](c2ccc(-c3ncnn3C)s2)NS1(=O)=O [HBV-CSU-323-ISO-I, Cis-N-(3-Chloro-4-fluorophenyl)-2-methyl-5-(5-(1-methyl-1H-1,2,4-triazol-5-yl)thiophen-2-yl)-1,2,6-thiadiazinane-3-carboxamide 1,1-dioxide]
- EC50: < 1000 nM

SMILES: CN1[C@@H](C(=O)Nc2ccc(F)c(Cl)c2)C[C@@H](c2ccc(-c3ncnn3C)s2)NS1(=O)=O [HBV-CSU-323-ISO-II, Cis-N-(3-Chloro-4-fluorophenyl)-2-methyl-5-(5-(1-methyl-1H-1,2,4-triazol-5-yl)thiophen-2-yl)-1,2,6-thiadiazinane-3-carboxamide 1,1-dioxide]
- EC50: 1000 to 5000 nM

SMILES: CN1[C@H](C(=O)Nc2ccc(F)c(Cl)c2)C[C@H](c2ccc(-c3nncn3C)s2)NS1(=O)=O [HBV-CSU-324-ISO-I, Cis-N-(3-Chloro-4-fluorophenyl)-2-methyl-5-(5-(4-methyl-4H-1,2,4-triazol-3-yl)thiophen-2-yl)-1,2,6-thiadiazinane-3-carboxamide 1,1-dioxide]
- EC50: < 1000 nM

SMILES: CN1[C@@H](C(=O)Nc2ccc(F)c(Cl)c2)C[C@@H](c2ccc(-c3nncn3C)s2)NS1(=O)=O [HBV-CSU-324-ISO-II, Cis-N-(3-Chloro-4-fluorophenyl)-2-methyl-5-(5-(4-methyl-4H-1,2,4-triazol-3-yl)thiophen-2-yl)-1,2,6-thiadiazinane-3-carboxamide 1,1-dioxide]
- EC50: 1000 to 5000 nM

SMILES: CN1[C@H](C(=O)Nc2ccc(F)c(Cl)c2)C[C@H](c2cc(-c3cnn(C(F)(F)F)c3)cs2)NS1(=O)=O [HBV-CSU-325-ISO-I, Cis-N-(3-Chloro-4-fluorophenyl)-2-methyl-5-(4-(1-(trifluoromethyl)-1H-pyrazol-4-yl)thiophen-2-yl)-1,2,6-thiadiazinane-3-carboxamide 1,1-dioxide]
- EC50: < 1000 nM

SMILES: CN1[C@H](C(=O)Nc2ccc(F)c(Cl)c2)C[C@H](c2cc(-c3ncn(C)n3)cs2)NS1(=O)=O [HBV-CSU-326-ISO-I, Cis-N-(3-chloro-4-fluorophenyl)-2-methyl-5-(4-(1-methyl-1H-1,2,4-triazol-3-yl)thiophen-2-yl)-1,2,6-thiadiazinane-3-carboxamide 1,1-dioxide]
- EC50: < 1000 nM

SMILES: CN1[C@@H](C(=O)Nc2ccc(F)c(Cl)c2)C[C@@H](c2cc(-c3ncn(C)n3)cs2)NS1(=O)=O [HBV-CSU-326-ISO-II, Cis-N-(3-chloro-4-fluorophenyl)-2-methyl-5-(4-(1-methyl-1H-1,2,4-triazol-3-yl)thiophen-2-yl)-1,2,6-thiadiazinane-3-carboxamide 1,1-dioxide]
- EC50: > 5000 nM

SMILES: CN1[C@H](C(=O)Nc2ccc(F)c(Cl)c2)C[C@H](c2cc(-c3ncnn3C)cs2)NS1(=O)=O [HBV-CSU-327-ISO-I, Cis-N-(3-Chloro-4-fluorophenyl)-2-methyl-5-(4-(1-methyl-1H-1,2,4-triazol-5-yl)thiophen-2-yl)-1,2,6-thiadiazinane-3-carboxamide 1,1-dioxide]
- EC50: < 1000 nM

SMILES: CN1[C@@H](C(=O)Nc2ccc(F)c(Cl)c2)C[C@@H](c2cc(-c3ncnn3C)cs2)NS1(=O)=O [HBV-CSU-327-ISO-II, Cis-N-(3-Chloro-4-fluorophenyl)-2-methyl-5-(4-(1-methyl-1H-1,2,4-triazol-5-yl)thiophen-2-yl)-1,2,6-thiadiazinane-3-carboxamide 1,1-dioxide]
- EC50: 1000 to 5000 nM
